Results taken from US10052320B2, “Substituted quinoxalines as FGFR kinase inhibitors” (ASTEX THERAPEUTICS LIMITED, priority 2011, dated 2018).

Columns and labels:
[1] = test system: Ba/F3-Flt3-transfected cells in the presence of 10 ng/ml murine IL3; test: Ba/F3-Flt3 (plus IL3) cellular proliferation counterscreen, Alamar Blue; assay type: cell-based; settings: plus 10 ng/ml murine IL3; for IC50: Mus musculus, read-out: BAF3-FLT3 (PLUS IL3) 384 well pIC50 (converted)
[2] = test system: Ba/F3-KDR-transfected cells in the presence of 10 ng/ml murine IL3; test: Ba/F3-KDR (plus IL3) cellular proliferation counterscreen, Alamar Blue; assay type: cell-based; settings: plus 10 ng/ml murine IL3; for IC50: Mus musculus, read-out: BAF3-KDR (PLUS IL3) 384 well pIC50 (converted)
Procedure, shortened: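 Measured with and without 10 ng/ml murine IL3: Ba/F3-KDR cells treated 24 h with compound, then 4 h Alamar Blue, fluorescence read at 540/590 nm.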

FGFR1 (h) = FGFR1 (h) (Homo sapiens, UniProt P11362); test: FGFR1 (enzymatic assay), TR-FRET; assay type: biochemical; settings: read-out: FGFR 1 pIC50 (converted)
Chain of FGFR1 (h) (P11362 22-822): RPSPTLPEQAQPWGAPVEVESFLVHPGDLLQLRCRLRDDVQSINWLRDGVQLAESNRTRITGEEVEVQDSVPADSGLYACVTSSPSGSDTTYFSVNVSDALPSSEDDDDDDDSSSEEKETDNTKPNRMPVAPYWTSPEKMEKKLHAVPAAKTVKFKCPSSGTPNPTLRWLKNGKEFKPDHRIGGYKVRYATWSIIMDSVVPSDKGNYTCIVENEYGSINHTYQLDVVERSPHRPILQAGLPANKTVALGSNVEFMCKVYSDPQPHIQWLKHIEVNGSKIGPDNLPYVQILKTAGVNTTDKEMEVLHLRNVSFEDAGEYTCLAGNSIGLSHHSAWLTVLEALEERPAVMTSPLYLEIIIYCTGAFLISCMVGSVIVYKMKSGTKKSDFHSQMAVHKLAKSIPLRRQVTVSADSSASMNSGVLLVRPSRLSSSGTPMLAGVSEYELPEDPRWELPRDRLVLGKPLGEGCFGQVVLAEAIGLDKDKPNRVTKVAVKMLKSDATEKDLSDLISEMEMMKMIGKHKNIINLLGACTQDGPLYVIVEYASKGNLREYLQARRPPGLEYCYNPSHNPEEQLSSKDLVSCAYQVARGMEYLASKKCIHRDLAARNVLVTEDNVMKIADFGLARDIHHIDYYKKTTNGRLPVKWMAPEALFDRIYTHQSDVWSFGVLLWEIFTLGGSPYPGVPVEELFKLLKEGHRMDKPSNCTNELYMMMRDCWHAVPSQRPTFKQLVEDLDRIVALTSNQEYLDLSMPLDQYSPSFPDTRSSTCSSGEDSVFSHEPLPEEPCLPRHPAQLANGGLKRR
Description: In a final reaction volume of 30 μL, FGFR1 (h) (25 ng/ml) was incubated with 50 mM HEPES pH 7.5, 6 mM MnCl2, 1 mM DTT, 0.1 mM Na3VO4, 0.01% Triton-X-100, 500 nM Btn-Flt3 and 5 μM ATP in the presence of compound (1% DMSO final). […] Time-Resolved Fluorescence Resonance Energy Transfer (TR-FRET) signal (ex340 nm. Em 620 nm, em 655 nm) was measured afterwards and results are expressed in RFU (Relative Fluorescence Units).

[3] = target: Ba/F3-FGFR1-transfected cells (Homo sapiens, UniProt P11362); test: Ba/F3-FGFR1 (minus IL3) cellular proliferation assay, Alamar Blue; assay type: cell-based; settings: minus IL3, 384 well
Chain of Ba/F3-FGFR1-transfected cells (P11362 whole entry, change not shown): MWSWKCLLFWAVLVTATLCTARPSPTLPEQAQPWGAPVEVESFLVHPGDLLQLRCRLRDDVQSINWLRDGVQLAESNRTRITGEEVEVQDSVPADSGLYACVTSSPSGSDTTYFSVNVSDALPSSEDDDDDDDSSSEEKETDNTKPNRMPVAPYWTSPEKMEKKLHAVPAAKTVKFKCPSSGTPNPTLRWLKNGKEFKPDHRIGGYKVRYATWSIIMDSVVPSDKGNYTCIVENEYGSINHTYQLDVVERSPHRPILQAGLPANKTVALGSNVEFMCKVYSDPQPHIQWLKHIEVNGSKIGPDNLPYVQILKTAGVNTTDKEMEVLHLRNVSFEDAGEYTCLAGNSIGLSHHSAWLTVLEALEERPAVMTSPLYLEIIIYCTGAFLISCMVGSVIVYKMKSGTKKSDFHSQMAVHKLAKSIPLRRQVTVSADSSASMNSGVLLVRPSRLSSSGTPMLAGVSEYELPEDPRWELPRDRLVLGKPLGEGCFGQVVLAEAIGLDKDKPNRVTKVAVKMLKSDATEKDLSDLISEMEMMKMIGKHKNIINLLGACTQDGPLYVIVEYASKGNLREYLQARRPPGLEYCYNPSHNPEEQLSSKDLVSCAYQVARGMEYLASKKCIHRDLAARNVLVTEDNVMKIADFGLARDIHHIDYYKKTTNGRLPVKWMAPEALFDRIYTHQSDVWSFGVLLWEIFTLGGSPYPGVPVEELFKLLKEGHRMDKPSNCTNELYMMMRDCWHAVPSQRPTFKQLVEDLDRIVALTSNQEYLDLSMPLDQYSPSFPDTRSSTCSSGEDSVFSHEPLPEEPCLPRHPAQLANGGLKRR
Procedure, shortened: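 Proliferation is estimated from Alamar Blue fluorescence after cells grow for one day with test compound in 10% FBS medium at 37 °C, with 4 h dye incubation before reading.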

| SMILES | IC50 [1] [nM] | melting point [°C] | BAF3-KDR (PLUS IL3) 384 well pIC50 [2] | BAF3-FLT3 (PLUS IL3) 384 well pIC50 [1] | IC50 (FGFR1 (h)) [nM] | BAF3-FGFR 1 (MIN IL3) 384 well pIC50 [3] | IC50 [2] [nM] |
| --- | --- | --- | --- | --- | --- | --- | --- |
| COc1cc(OC)cc(N(CC(OC(C)=O)C(F)(F)F)c2ccc3ncc(-c4cccnc4)nc3c2)c1 (single isomer, unassigned) [Compound 45] | > 10000 | – | – | – | – | – | – |
| COc1cc(OC)cc(N(CC(O)C(F)(F)F)c2ccc3ncc(-c4cccnc4)nc3c2)c1 (single isomer, unassigned) [Compound 53] | > 10000 | 211 | – | – | – | – | – |
| COc1cc(OC)cc(N(CC(O)C(F)(F)F)c2ccc3ncc(-c4cccnc4)nc3c2)c1 (single isomer, unassigned) [Compound 54] | – | 210 | <5 | <5 | – | – | – |
| COc1cc(OC)cc(N(CC(OC(C)=O)C(F)(F)F)c2ccc3ncc(-c4cccnc4)nc3c2)c1 (single isomer, unassigned) [Compound 75] | – | 180 | <5 | <5 | – | – | – |
| COCCCN(c1cc(OC)cc(OC)c1)c1ccc2ncc(-c3ccn(C)c3)nc2c1 [Compound 3] | > 10000 | – | – | – | 7.76 | 5.91 | > 10000 |
| COCCN(c1cc(OC)cc(OC)c1)c1ccc2ncc(-c3ccn(C)c3)nc2c1 [Compound 6] | > 10000 | 135 | – | – | 4.37 | 5.84 | > 10000 |
| COc1cc(OC)cc(N(CCNC(C)C)c2ccc3ncc(-c4ccn(C)c4)nc3c2)c1 [Compound 8] | > 10000 | – | – | – | 0.457 | 8.13 | – |
| COc1cc(OC)cc(N(CCO)c2ccc3ncc(-c4cccnc4)nc3c2)c1 [Compound 9] | > 10000 | 151 | – | – | 10 | 6.25 | > 10000 |
| COc1cc(OC)cc(N(CCNC(C)C)c2ccc3ncc(-c4cccnc4)nc3c2)c1 [Compound 10] | 9330 | – | – | – | 2.75 | 7.55 | – |
| COc1cc(OC)cc(N(CCO)c2ccc3ncc(-c4ccncc4)nc3c2)c1 [Compound 11] | > 10000 | 158 | – | – | 8.13 | 6.01 | > 10000 |
| CNC(=O)c1cc(-c2cnc3ccc(N(CCNC(C)C)c4cc(OC)cc(OC)c4)cc3n2)ccn1 [Compound 14] | > 10000 | 68 | – | – | 6.17 | 6.61 | – |
| COc1cc(OC)cc(N(CCNC(C)C)c2ccc3ncc(-c4ccc(N)nc4)nc3c2)c1 [Compound 17] | > 9550 | 144 | – | – | 1.23 | 6.975 | – |
| CNC(=O)c1cc(-c2cnc3ccc(N(CCN4CCCC4=O)c4cc(OC)cc(OC)c4)cc3n2)ccn1 [Compound 25] | > 10000 | 176 | – | – | 468 | 5.05 | – |
| COc1cc(OC)cc(N(CCCO)c2ccc3ncc(-c4ccnc(C(=O)NCCCN)c4)nc3c2)c1 [Compound 33] | > 10000 | 110 | – | – | 12.6 | 5.1 | – |
| COc1cc(OC)cc(N(Cc2cccc(CN)n2)c2ccc3ncc(-c4ccc(N)nc4)nc3c2)c1 [Compound 51] | ~7080 | – | – | – | 3.72 | 5.88 | > 10000 |
| COc1cc(OC)cc(N(CCCO)c2ccc3ncc(-c4ccnc(N)c4)nc3c2)c1 [Compound 66] | > 10000 | 137 | – | – | 3.09 | 7.16 | – |
| COc1cc(OC)cc(N(CC(O)CO)c2ccc3ncc(-c4ccc(N)nc4)nc3c2)c1 (stereo not shown) [Compound 74] | > 10000 | – | – | – | 7.24 | 6.62 | > 10000 |

| SMILES | IC50 [1] [nM] | melting point [°C] | BAF3-KDR (PLUS IL3) 384 well pIC50 [2] | BAF3-FLT3 (PLUS IL3) 384 well pIC50 [1] | IC50 (FGFR1 (h)) [nM] | BAF3-FGFR 1 (MIN IL3) 384 well pIC50 [3] | IC50 [2] [nM] |
| --- | --- | --- | --- | --- | --- | --- | --- |
| CNC(=O)OCCN(c1cc(OC)cc(OC)c1)c1ccc2ncc(-c3ccc(NC(=O)OC(C)(C)C)nc3)nc2c1 [Compound 80] | > 10000 | 214 | – | – | 398 | 5.08 | – |
| CNCCN(c1cc(OC)cc(OC)c1)c1ccc2ncc(-c3ccc(NC(=O)OC(C)(C)C)nc3)nc2c1 [Compound 81] | – | 182 | – | – | 10.2 | 5.66 | – |
| COc1cc(OC)cc(N(CC2CC2)c2ccc3ncc(-n4cnc(CO)c4)nc3c2)c1 [Compound 105] | – | 154 | – | – | 28.2 | 5.32 | – |
| COc1cc(OC)cc(N(CCO)c2ccc3ncc(-c4ccc(N)nc4)nc3c2)c1 [Compound 106] | – | 160 | – | – | 5.43 | 6.455 | – |
| CNC(=O)c1cc(-c2cnc3ccc(N(CCN4CCCC4CO)c4cc(OC)cc(OC)c4)cc3n2)ccn1 (stereo not shown) [Compound 109] | – | 172 | – | – | 16.2 | 6.63 | – |
| COc1cc(OC)cc(N(CC2CO2)c2ccc3ncc(-c4ccc(N)nc4)nc3c2)c1 (stereo not shown) [Compound 110] | > 10000 | 169 | – | – | 27.5 | 6.25 | – |
| CNC(=O)c1cc(-c2cnc3ccc(N(CCNCC(F)(F)F)c4cc(OC)cc(OC)c4)cc3n2)ccn1 [Compound 113] | – | 98 | – | – | 85.1 | 5.44 | – |
| COc1cc(OC)cc(N(CCCO)c2ccc3ncc(-c4ccc(C)nc4)nc3c2)c1 [Compound 115] | – | 166 | – | – | 15.8 | 5.93 | – |
| COc1cc(OC)cc(N(CCCO)c2ccc3ncc(-c4ccc(F)nc4)nc3c2)c1 [Compound 117] | > 10000 | – | – | – | 20.4 | 6.67 | > 10000 |
| COc1cc(OC)cc(N(CCO)c2ccc3ncc(-c4ccccc4)nc3c2)c1 [Compound 120] | > 10000 | 124 | – | – | 8.91 | 5.71 | – |
| COc1cc(OC)cc(N(CCNC(C)C)c2ccc3ncc(-c4ccccc4)nc3c2)c1 [Compound 121] | – | – | – | – | 1.17 | 6.45 | – |
| CNC(=O)c1cc(-c2cnc3ccc(N(CCCNCC(F)(F)F)c4cc(OC)cc(OC)c4)cc3n2)ccn1 [Compound 122] | > 10000 | – | – | – | 83.2 | 5.29 | – |
| COc1cc(OC)cc(N(CCCO)c2ccc3ncc(-c4ccc(N5CCOCC5)nc4)nc3c2)c1 [Compound 124] | > 10000 | – | – | – | 6.92 | 6.24 | > 10000 |
| COc1cc(OC)cc(N(CCCO)c2ccc3ncc(-c4ccc(N(C)C(=O)OC(C)(C)C)nc4)nc3c2)c1 [Compound 125] | – | 143 | – | – | 34.7 | 5.37 | – |
| COc1cc(OC)cc(N(CCCO)c2ccc3ncc(-c4ccnc(C(=O)NCCCCN)c4)nc3c2)c1 [Compound 126] | – | 130 | – | – | 19.5 | 5.31 | – |
| COc1cc(OC)cc(N(CCCNCC(F)(F)F)c2ccc3ncc(-c4ccc(N(C)C(=O)OC(C)(C)C)nc4)nc3c2)c1 [Compound 127] | > 10000 | – | – | – | 257 | <5 | > 10000 |
